Two compounds from article PMC5599593, “A general reaction mechanism for carbapenem hydrolysis by mononuclear and binuclear metallo-β-lactamases” (Nature Communications, 2017) can be followed below.

What all share (assay type): biochemical
One assay addresses T1, mono-Zn(II)-Sfh-I (Serratia fonticola, UniProt Q9RMI1).
T1 construct: gene sfhI; expressed from pET-26b; anion exchange and size exclusion purification; mono-Zn(II) form
The assay can be described thus: stopped-flow absorption (pre-steady state); RFQ Zn K-edge XAS of ES complex. The following applies: 50 mM Hepes pH 7, 4 °C.

In another assay the target is T2, bi-Zn(II)-BcII (Bacillus cereus, UniProt P04190).
T2 construct: gene blm; expressed as N-terminal GST fusion, GST removed with thrombin; bi-Zn(II) form
T2 sequence (P04190 31-257): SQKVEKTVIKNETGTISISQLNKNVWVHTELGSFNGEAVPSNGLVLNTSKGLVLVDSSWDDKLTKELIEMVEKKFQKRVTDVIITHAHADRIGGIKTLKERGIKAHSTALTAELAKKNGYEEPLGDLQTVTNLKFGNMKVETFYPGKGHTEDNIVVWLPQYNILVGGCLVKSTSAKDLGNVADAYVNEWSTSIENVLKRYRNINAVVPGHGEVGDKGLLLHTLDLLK
The assay can be described thus: rapid-freeze-quench X-ray absorption spectroscopy. Conditions: 10 ms reaction.

Assay [1] has as its target T3, bi-Zn(II)-NDM-1 (Klebsiella pneumoniae, UniProt C7C422).
T3 construct: gene blaNDM-1
The assay is described as follows: stopped-flow absorption, single turnover. Conditions: 100 mM Hepes pH 7.5, 200 mM NaCl, 300 µM ZnSO4, 6 °C.

For assay [2], the target named is T3, bi-Zn(II)-NDM-1. The assay can be described thus: stopped-flow absorption. Conditions: 100 mM Hepes pH 7.5, 200 mM NaCl, 300 µM ZnSO4, 6 °C.

T3 sequence (C7C422 27-270 limits assumed): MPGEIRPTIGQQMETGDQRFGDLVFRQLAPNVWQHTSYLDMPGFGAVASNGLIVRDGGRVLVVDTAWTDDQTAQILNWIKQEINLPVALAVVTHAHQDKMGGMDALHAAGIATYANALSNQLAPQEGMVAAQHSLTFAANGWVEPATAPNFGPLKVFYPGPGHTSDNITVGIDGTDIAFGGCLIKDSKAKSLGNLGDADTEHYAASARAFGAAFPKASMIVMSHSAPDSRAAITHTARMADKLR
T1 sequence (Q9RMI1 entry or part of it): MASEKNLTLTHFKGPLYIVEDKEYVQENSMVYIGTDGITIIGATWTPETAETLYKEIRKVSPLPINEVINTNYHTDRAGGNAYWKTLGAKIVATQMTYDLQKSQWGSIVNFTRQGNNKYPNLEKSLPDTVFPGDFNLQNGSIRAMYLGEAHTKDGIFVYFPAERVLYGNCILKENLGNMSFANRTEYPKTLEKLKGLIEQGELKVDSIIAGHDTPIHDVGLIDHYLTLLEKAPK

On to `C[C@@H](O)[C@H]1C(=O)N2C(C(=O)O)=C(SCCN=CN)C[C@H]12` [imipenem], for which, at mono-Zn(II)-Sfh-I, the “stopped-flow absorption (pre-steady state); RFQ Zn K-edge XAS of ES complex” value is listed as “imipenem hydrolysis by the mono-Zn(II) B2 lactamase Sfh-I”. Moreover, on bi-Zn(II)-BcII, the “rapid-freeze-quench X-ray absorption spectroscopy” value is “X-ray absorption spectroscopy to analyse hydrolysis of imipenem by the B1 enzyme bi-Zn(II)-BcII”. Further, the “stopped-flow absorption, single turnover” value on bi-Zn(II)-NDM-1 [1] is given as “Hydrolysis of imipenem by bi-Zn(II)-NDM-1 under single turnover conditions”.

`C[C@@H](O)[C@H]1C(=O)N2C(C(=O)O)=C(S[C@@H]3CN[C@H](C(=O)N(C)C)C3)[C@H](C)[C@H]12` [meropenem]: at bi-Zn(II)-NDM-1 [2], the stopped-flow absorption result was “We also assayed hydrolysis of another carbapenem, meropenem, by bi-Zn(II)-NDM-1”.
